The structures appear in SMILES notation.

dopaminergic (D2) receptors, sequence (P61169 whole entry): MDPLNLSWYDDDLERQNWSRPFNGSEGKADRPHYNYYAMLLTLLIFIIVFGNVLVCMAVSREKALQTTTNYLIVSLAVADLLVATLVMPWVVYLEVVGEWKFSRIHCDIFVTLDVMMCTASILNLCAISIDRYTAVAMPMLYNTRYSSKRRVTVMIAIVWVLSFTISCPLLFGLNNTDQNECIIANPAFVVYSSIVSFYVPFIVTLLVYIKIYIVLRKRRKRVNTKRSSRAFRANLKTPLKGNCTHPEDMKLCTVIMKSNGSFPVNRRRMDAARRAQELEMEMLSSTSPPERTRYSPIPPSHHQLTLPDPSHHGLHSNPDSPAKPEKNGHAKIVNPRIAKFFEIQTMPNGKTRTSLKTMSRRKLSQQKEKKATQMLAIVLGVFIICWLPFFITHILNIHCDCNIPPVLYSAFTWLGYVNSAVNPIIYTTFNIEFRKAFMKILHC

The target of the first assay is dopaminergic (D2) receptors (Rattus norvegicus, UniProt P61169). Kind of assay: biochemical. Conditions: striatal rat brain homogenates, ^3H-spiperone, 37° C., 15 minutes; read-out: 3H-Spiperone Displacement IC50. In kind it is binding. How it is done:
Rats (150±10 g; Charles River) were decapitated, the corpus striatum dissected out and frozen on dry ice. The tissues were pooled and stored at -80° C. until used. Homogenates (Brinkmann Polytron) of the corpus striatum in cold HEPES.KOH buffer (final pH=7.4) were centrifuged at 39,000×G. The supernatant was discarded and the pellets were re-suspended in HEPES.KOH buffer and re-centrifuged as above.
Tests to determine the Inhibitory Concentration50 (IC50) of the compounds of Formula I and reference compounds versus ^3 H-spiperone were conducted as follows. Tubes containing either 100 μL of buffer mixture (for total binding), 100 μL of buffer mixture plus 100 μL of 10^-4 M D(+)-butaclamol (for blanks, i.e. non-specific binding), or 100 μL of buffer mixture containing 10^-7, 10^-6 or 10^-5 M test compound were prepared. To each were added 100 μL of a solution of ^3 H-spiperone (New England Nuclear) in buffer mixture (2000 c.p.m. in the incubation mixture) and 800 μL of the striatal tissue suspension. The tubes were then diluted to 1 mL with buffer mixture, giving a final concentration of 10^-8, 10^-7 or 10^-6 M test compound and approximately 100 pM ^3 H-spiperone. The samples were incubated at 37° C. for 15 minutes, filtered in vacuo on glass fiber filters and counted by liquid scintillation spectrometry. […] All samples were run in duplicate.
Consider `CCN(CC)CCNC(=O)c1cc(Cl)c(N)cc1OCC(=O)NC` [Example 40], for which the IC50 is more than 1 µM.
Still for that read-out and setting: the same measure for `CCN(CC)CCNC(=O)c1cc(Cl)c(N)cc1OCCNC(C)=O` [Example 48]: more than 1 µM; for `CCN(CC)CCNC(=O)c1cc(Cl)c(N)cc1OCCC[S+](C)[O-]` (stereo not shown) [Example 50, 4-Amino-5-chloro-N-[2-(diethylamino)ethyl]-2-[3-(methylsulfinyl)propoxy]benzamide]: more than 1 µM.
Same read-out and setting: the value for `CCN(CC)CCNC(=O)c1cc(Cl)c(N)cc1OCCCC(=O)N(CC)CC` [Example 56, 4-Amino-5-chloro-N-[2-(diethylamino)ethyl]-2-(4-diethylamino-4-oxobutoxy)benzamide] was more than 1 µM; that for `CCN(CC)CCNC(=O)c1cc(Cl)c(N)cc1OCCCC[S+](C)[O-]` (stereo not shown) [Example 58] was more than 1 µM.
On the same count and under the same terms, the value for `CCN(CC)CCNC(=O)c1cc(Cl)c(N)cc1OCC(=O)N1CCCC1` [Example 59, 4-Amino-5-chloro-N-[2-(diethylamino)ethyl]-2-[2-(1-pyrrolidinyl)-2-oxoethoxy]benzamide] was more than 1 µM; that for `CCN(CC)CCNC(=O)c1cc(Cl)c(N)cc1OCC[S+]([O-])CC` (stereo not shown) [Example 60] was more than 1 µM.

The next assay relates to Apomorphine-Induced Emesis. Put plainly: Antagonism of Apomorphine-Induced Emesis in Dogs. The assay is classed as in vivo, beagle dogs. Conditions: Canis lupus familiaris, sc; s.c. 30 minutes prior to apomorphine 0.3 mg/kg; dog; read-out: Antagonism of Apomorphine-Induced Emesis in the Dog ED50. How it is done:
Unfasted beagle dogs of both sexes were used as test subjects. Test compounds and apomorphine were each administered subcutaneously as aqueous solutions, with the test compound being administered 30 minutes prior to the administration of the apormorphine.
Apomorphine was administered at a dose of 0.3 mg/kg. […] All tests were run in at least two dogs.
As for `CCN(CC)CCNC(=O)c1cc(Cl)c(N)cc1OCC(=O)NC` [Example 40], the ED50 was more than 3 mg/kg.
The same measure, in the same setting: the value for `CCN(CC)CCNC(=O)c1cc(Cl)c(N)cc1OCCNC(C)=O` [Example 48] was more than 3 mg/kg; that for `CCN(CC)CCNC(=O)c1cc(Cl)c(N)cc1OCCC[S+](C)[O-]` (stereo not shown) [Example 50, 4-Amino-5-chloro-N-[2-(diethylamino)ethyl]-2-[3-(methylsulfinyl)propoxy]benzamide] was more than 3 mg/kg; that for `CCN(CC)CCNC(=O)c1cc(Cl)c(N)cc1OCCCC(=O)N(CC)CC` [Example 56, 4-Amino-5-chloro-N-[2-(diethylamino)ethyl]-2-(4-diethylamino-4-oxobutoxy)benzamide] was more than 3 mg/kg.
`CCN(CC)CCNC(=O)c1cc(Cl)c(N)cc1OCCCC[S+](C)[O-]` (stereo not shown) [Example 58]: the ED50 is more than 3 mg/kg.
Still for that read-out and setting: the same measure for `CCN(CC)CCNC(=O)c1cc(Cl)c(N)cc1OCC(=O)N1CCCC1` [Example 59, 4-Amino-5-chloro-N-[2-(diethylamino)ethyl]-2-[2-(1-pyrrolidinyl)-2-oxoethoxy]benzamide]: more than 3 mg/kg; for `CCN(CC)CCNC(=O)c1cc(Cl)c(N)cc1OCC[S+]([O-])CC` (stereo not shown) [Example 60]: more than 3 mg/kg.

The test system of the next assay is Cisplatin-Induced Emesis. Put plainly: Antagonism of Cisplatin-Induced Emesis in the Ferret. In kind it is in vivo, Fitch ferrets. The following applies: Mustela putorius, iv, 4 h; 3 mg/kg, i.v. × 2; read-out: Antagonism of Cisplatin-Induced Emesis in the Ferret, % Protection.
For the molecule `CCN(CC)CCNC(=O)c1cc(Cl)c(N)cc1OCC(=O)NC` [Example 40], the inhibition in vivo at 3 mg/kg worked out at 62%.
Turning to `CCN(CC)CCNC(=O)c1cc(Cl)c(N)cc1OCCNC(C)=O` [Example 48], the inhibition in vivo at 3 mg/kg turned out to be 47%.
Still for that read-out and setting: the value for `CCN(CC)CCNC(=O)c1cc(Cl)c(N)cc1OCCC[S+](C)[O-]` (stereo not shown) [Example 50, 4-Amino-5-chloro-N-[2-(diethylamino)ethyl]-2-[3-(methylsulfinyl)propoxy]benzamide] was 62%.
As to `CCN(CC)CCNC(=O)c1cc(Cl)c(N)cc1OCCCC(=O)N(CC)CC` [Example 56, 4-Amino-5-chloro-N-[2-(diethylamino)ethyl]-2-(4-diethylamino-4-oxobutoxy)benzamide], the inhibition in vivo at 3 mg/kg is 81%.
On the same count and under the same terms, the value for `CCN(CC)CCNC(=O)c1cc(Cl)c(N)cc1OCCCC[S+](C)[O-]` (stereo not shown) [Example 58] was 66%; that for `CCN(CC)CCNC(=O)c1cc(Cl)c(N)cc1OCC(=O)N1CCCC1` [Example 59, 4-Amino-5-chloro-N-[2-(diethylamino)ethyl]-2-[2-(1-pyrrolidinyl)-2-oxoethoxy]benzamide] was 66%.
Consider `CCN(CC)CCNC(=O)c1cc(Cl)c(N)cc1OCC[S+]([O-])CC` (stereo not shown) [Example 60], for which the inhibition in vivo at 3 mg/kg is 52%.

A further assay has as its system field-stimulated guinea pig ileum. Put plainly: Gastrokinetic Activity: contraction of field-stimulated guinea pig ileum preparations. The arrangement: species or system guinea pig (Hartley). Conditions: Cavia porcellus; at 10 μM; read-out: Average % Maximum Increase.
Take `CCN(CC)CCNC(=O)c1cc(Cl)c(N)cc1OCC(=O)NC` [Example 40]: the activation at 10 µM is 56%.
Regarding `CCN(CC)CCNC(=O)c1cc(Cl)c(N)cc1OCCNC(C)=O` [Example 48], the activation at 10 µM is 47%.
Take `CCN(CC)CCNC(=O)c1cc(Cl)c(N)cc1OCC(=O)N1CCCC1` [Example 59, 4-Amino-5-chloro-N-[2-(diethylamino)ethyl]-2-[2-(1-pyrrolidinyl)-2-oxoethoxy]benzamide]: the activation at 10 µM was found to be 38%.

The assay is the same for the next values; noted with them: Cavia porcellus; at 30 μM; read-out: Average % Maximum Increase.
`CCN(CC)CCNC(=O)c1cc(Cl)c(N)cc1OCCC[S+](C)[O-]` (stereo not shown) [Example 50, 4-Amino-5-chloro-N-[2-(diethylamino)ethyl]-2-[3-(methylsulfinyl)propoxy]benzamide]: the activation at 30 µM is 45%.
For `CCN(CC)CCNC(=O)c1cc(Cl)c(N)cc1OCCCC(=O)N(CC)CC` [Example 56, 4-Amino-5-chloro-N-[2-(diethylamino)ethyl]-2-(4-diethylamino-4-oxobutoxy)benzamide], the activation at 30 µM came to 59%.
Take `CCN(CC)CCNC(=O)c1cc(Cl)c(N)cc1OCCCC[S+](C)[O-]` (stereo not shown) [Example 58]: the activation at 30 µM amounted to 72%.
With `CCN(CC)CCNC(=O)c1cc(Cl)c(N)cc1OCC[S+]([O-])CC` (stereo not shown) [Example 60], the activation at 30 µM came to 66%.

The assay is the same for the next values; noted with them: Cavia porcellus; effective concentration30; read-out: EC30 (95% C.L.).
In the case of `CCN(CC)CCNC(=O)c1cc(Cl)c(N)cc1OCC(=O)NC` [Example 40], the concentration for an effect of 30% (EC30) worked out at 0.9 µM.
Still for that read-out and setting: the value for `CCN(CC)CCNC(=O)c1cc(Cl)c(N)cc1OCCNC(C)=O` [Example 48] was 2.3 µM; that for `CCN(CC)CCNC(=O)c1cc(Cl)c(N)cc1OCCC[S+](C)[O-]` (stereo not shown) [Example 50, 4-Amino-5-chloro-N-[2-(diethylamino)ethyl]-2-[3-(methylsulfinyl)propoxy]benzamide] was 12 µM; that for `CCN(CC)CCNC(=O)c1cc(Cl)c(N)cc1OCCCC(=O)N(CC)CC` [Example 56, 4-Amino-5-chloro-N-[2-(diethylamino)ethyl]-2-(4-diethylamino-4-oxobutoxy)benzamide] was 1.1 µM.
Same read-out and setting: the same measure for `CCN(CC)CCNC(=O)c1cc(Cl)c(N)cc1OCCCC[S+](C)[O-]` (stereo not shown) [Example 58]: 1.5 µM.
Still for that read-out and setting: the value for `CCN(CC)CCNC(=O)c1cc(Cl)c(N)cc1OCC(=O)N1CCCC1` [Example 59, 4-Amino-5-chloro-N-[2-(diethylamino)ethyl]-2-[2-(1-pyrrolidinyl)-2-oxoethoxy]benzamide] was 5.2 µM.
As for `CCN(CC)CCNC(=O)c1cc(Cl)c(N)cc1OCC[S+]([O-])CC` (stereo not shown) [Example 60], the EC30 worked out at 0.88 µM.

Staying with this assay, now noted: Cavia porcellus; effective concentration50; read-out: EC50 (95% C.L.).
In the case of `CCN(CC)CCNC(=O)c1cc(Cl)c(N)cc1OCC(=O)NC` [Example 40], the EC50 stood at 5.5 µM.
The same measure, in the same setting: the value for `CCN(CC)CCNC(=O)c1cc(Cl)c(N)cc1OCCNC(C)=O` [Example 48] was 13 µM; that for `CCN(CC)CCNC(=O)c1cc(Cl)c(N)cc1OCCC[S+](C)[O-]` (stereo not shown) [Example 50, 4-Amino-5-chloro-N-[2-(diethylamino)ethyl]-2-[3-(methylsulfinyl)propoxy]benzamide] was 39 µM; that for `CCN(CC)CCNC(=O)c1cc(Cl)c(N)cc1OCCCC(=O)N(CC)CC` [Example 56, 4-Amino-5-chloro-N-[2-(diethylamino)ethyl]-2-(4-diethylamino-4-oxobutoxy)benzamide] was 7.3 µM.
The same measure, in the same setting: the value for `CCN(CC)CCNC(=O)c1cc(Cl)c(N)cc1OCCCC[S+](C)[O-]` (stereo not shown) [Example 58] was 5.6 µM; that for `CCN(CC)CCNC(=O)c1cc(Cl)c(N)cc1OCC(=O)N1CCCC1` [Example 59, 4-Amino-5-chloro-N-[2-(diethylamino)ethyl]-2-[2-(1-pyrrolidinyl)-2-oxoethoxy]benzamide] was 20 µM; that for `CCN(CC)CCNC(=O)c1cc(Cl)c(N)cc1OCC[S+]([O-])CC` (stereo not shown) [Example 60] was 4.8 µM.

Still in this assay, the particulars now being: Cavia porcellus; read-out: Minimum Effective Concentration.
Take `CCN(CC)CCNC(=O)c1cc(Cl)c(N)cc1OCC(=O)NC` [Example 40]: the minimal effective concentration was determined as 0.1 µM.
Consider `CCN(CC)CCNC(=O)c1cc(Cl)c(N)cc1OCCNC(C)=O` [Example 48], for which the minimal effective concentration amounted to 0.1 µM.
For `CCN(CC)CCNC(=O)c1cc(Cl)c(N)cc1OCCC[S+](C)[O-]` (stereo not shown) [Example 50, 4-Amino-5-chloro-N-[2-(diethylamino)ethyl]-2-[3-(methylsulfinyl)propoxy]benzamide], the minimal effective concentration worked out at 1 µM.
Same read-out and setting: the same measure for `CCN(CC)CCNC(=O)c1cc(Cl)c(N)cc1OCCCC(=O)N(CC)CC` [Example 56, 4-Amino-5-chloro-N-[2-(diethylamino)ethyl]-2-(4-diethylamino-4-oxobutoxy)benzamide]: 0.1 µM; for `CCN(CC)CCNC(=O)c1cc(Cl)c(N)cc1OCCCC[S+](C)[O-]` (stereo not shown) [Example 58]: 0.3 µM.
Still for that read-out and setting: the same measure for `CCN(CC)CCNC(=O)c1cc(Cl)c(N)cc1OCC(=O)N1CCCC1` [Example 59, 4-Amino-5-chloro-N-[2-(diethylamino)ethyl]-2-[2-(1-pyrrolidinyl)-2-oxoethoxy]benzamide]: 1 µM; for `CCN(CC)CCNC(=O)c1cc(Cl)c(N)cc1OCC[S+]([O-])CC` (stereo not shown) [Example 60]: 0.1 µM.
